Test results from patent publication US11360080B2, “AhR-ROR-γt complex as a biomarker and therapeutic target for autoimmune disease and IL-17A-associated disease” (NATIONAL HEALTH RESEARCH INSTITUTES, priority 2018, dated 2022).

Tested on: GLK
Assay: GLK shRNA knockdown in T cells of Lck-GLK Tg mice, flow cytometry of IL-17A-producing T cells
Format: cell-based, mouse
Conditions: anti-CD3 3 h, day 3 post-transfection
Description: (A) Hematoxylin and eosin-stained sections of indicated organs from mice. Arrows, infiltrating immune cells. Bar, 100 μm. (B) Levels of serum autoantibodies from mice were determined by ELISA assays. The levels are presented relative to the value from one of wild-type mice. (C) The serum levels of cytokines in mice were determined by ELISA assays. (D) The serum levels of autoantibodies in Lck-GLK and Lck-GLK/IL-17A KO mice were determined by ELISA assays. The levels are presented relative to the value from one of Lck-GLK mice. (E) IL-17A expression was attenuated by GLK shRNA. Murine primary splenic T cells were transfected with GFP-human GLK shRNA and a control GFP vector. The transfected T cells were stimulated with anti-mouse CD3 antibodies for 3 h and then determined by flow cytometry at day 3 post-transfection. […] WT, wild-type littermate controls; Lck-GLK, T-cell-specific GLK transgenic mice. Lck-GLK/IL-17A KO, Lck-GLK; IL-17A-deficient mice. ANA, anti-nuclear antibody; α-dsDNA, anti-dsDNA antibody; RF, rheumatoid factor. *, P value<0.05; **, P value<0.01 (two-tailed Student's t-test).
Human Jurkat T leukaemia cells (TIB-152) were cultured in RPMI-1640 medium (Invitrogen) containing 10% fetal calf serum plus penicillin (10 units per ml) and streptomycin ([…]). […]

Question: “GLK shRNA: human GLK shRNA (5′-GTGCCACTTAGAATGTTTGAAA-3, SEQ ID NO: 7) subcloned into pSUPER-GFP vector” was tested. Which “IL-17A overproduction in T cells from Lck-GLK Tg mice” value did it give?
Answer: abolished
